Experimental data reported in ChEMBL document CHEMBL5252626, “Design and synthesis of novel GluN2A NMDAR positive allosteric modulators via scaffold hopping strategy as anti-stroke therapeutic agents” (Bioorg Med Chem, 2023).
Values after ≈ are worked out from the molar mass of the structure shown. Active and inactive are the calls of the source. The rule behind the calls is not given here.

Legend:
Mus musculus [1] = assay: Neuroprotective activity in middle cerebral artery occlusion-induced C57BL/6 mouse model assessed as reduction in infarct volume at 2 mg/kg, sc incubated with compound for 2 hrs after reperfusion by TTC staining based assay relative to control; type: functional; set-up: scale not given: the % may be the effect or the level left
PC-12 [2] = assay: Cytotoxicity in rat PC-12 cells assessed as reduction in cell viability at 10 uM incubated for 24 hrs by CCK-8 method; type: toxicity, cell-based; details: pc-12, 24 h
PC-12 [3] = assay: Neuroprotective activity against glutamate-induced neurotoxicity in rat PC-12 cells assessed as survival rate at 1 uM by WST-8 assay; type: functional
PC-12 [4] = assay: Neuroprotective activity against glutamate-induced neurotoxicity in rat PC-12 cells assessed as survival rate at 10 uM by WST-8 assay; type: functional
[5] = biological target: Glutamate NMDA receptor; GRIN1/GRIN2B (Homo sapiens) (UniProt Q05586+Q13224); assay: Positive allosteric modulation of GluN1/GluN2B receptor (unknown origin) stably expressed in HEK293 cells assessed as glutamate/glycine induced increase in intracellular calcium level at 10 uM incubated for 30 mins followed by addition of glutamate/glycine by Ca2+ influx assay; type: cell-based
[6] = biological target: T1, Glutamate NMDA receptor; GRIN1/GRIN2A (Homo sapiens) (UniProt Q05586+Q12879); assay: Positive allosteric modulation of GluN1/GluN2A receptor (unknown origin) stably expressed in HEK293 cells assessed as glutamate/glycine induced increase in intracellular calcium level at 10 uM incubated for 30 mins followed by addition of glutamate/glycine by Ca2+ influx assay; type: cell-based; details: filed as positive allosteric modulator
[7] = Solubility of the compound in water by UV spectophotometry analysis; type: physicochemical
PC-12 [8] = assay: Neuroprotective activity against glutamate-induced neurotoxicity in rat PC-12 cells assessed as survival rate at 0.1 uM by WST-8 assay (reference value: 40.8+/-2.0%); type: functional
[9] = biological target: T1, Glutamate NMDA receptor; GRIN1/GRIN2A (Homo sapiens); assay: Positive allosteric modulation of GluN1/GluN2A receptor (unknown origin) stably expressed in HEK293 cells assessed as ratio of Fmax/F0 fluorescence curve value; type: cell-based; details: filed as positive allosteric modulator
Mus musculus [10] = assay: Neuroprotective activity in middle cerebral artery occlusion-induced C57BL/6 mouse model assessed as reduction in infarct volume at 2 mg/kg, sc incubated with compound for 2 hrs after reperfusion by TTC staining based assay; type: functional
[11] = filed as positive allosteric modulator

Row | Compound | Activity (Mus musculus [1]) | Activity (PC-12 [2]) | Activity (PC-12 [3]) | Activity (PC-12 [4]) | Activity [5, 11] | Activity [6] | solubility [7] | Activity (PC-12 [8]) | Ratio [9] | Activity (Mus musculus [10]) | Activity [5]
1 | COc1ccccc1NC(=O)c1c[nH]c2c(Cl)cccc2c1=O | 49% | 84.4% | 64.9% | 52.8% | Active | Active | 13.7 µM (≈ 4.5 µg/mL) | 64.3% |  |  | 
2 | Cc1ccc(O)cc1NC(=O)c1c[nH]c2c(Cl)cccc2c1=O |  | 92.7% | 44.7% | 41.6% |  |  | 140 µM (≈ 46 µg/mL) | 53.6% |  |  | 
3 | CNC(=O)c1ccccc1NC(=O)c1c[nH]c2c(Cl)cccc2c1=O |  | 93.8% | 47.3% | 42.6% |  |  |  | 47.6% |  |  | 
4 | CNC(=O)c1ccccc1NC(=O)c1c[nH]c2ccccc2c1=O |  | 90.6% | 55.9% | 53.7% |  |  | 62.3 µM (≈ 20 µg/mL) | 56.4% |  |  | 
5 | N#Cc1ccc(NC(=O)c2c[nH]c3ccccc3c2=O)cc1 |  | 71.9% | 39.7% | 40.7% |  |  |  | 34.7% |  |  | 
6 | CCOc1cc(Cl)c(Cl)c(/C=N/NC(=O)c2ccccc2Br)c1O | 31.33% | 40.2% | 53.1% | 8.6% | Active | Active |  | 44.3% | 152 | 149 mm | 
7 | COc1ccc(NC(=O)c2c[nH]c3ccccc3c2=O)c(C)c1 |  | 62% | 34.2% | 44% |  |  |  | 33.6% |  |  | 
8 | CC(=O)Nc1ccc(NC(=O)c2c[nH]c3ccccc3c2=O)cc1 |  | 101.5% | 66.6% | 65.4% |  |  | < 6.2 µM | 57.2% |  |  | 
9 | COc1ccccc1CNC(=O)c1c[nH]c2c(Cl)cccc2c1=O |  | 66.1% | 41.2% | 23.2% |  |  |  | 44.4% |  |  | 
10 | COC(=O)c1ccc(NC(=O)C2=Cc3ccccc3OC2)cc1 |  | 91.4% | 62.6% | 55.5% |  |  | 202 µM (≈ 62.5 µg/mL) | 58.4% |  |  | 
11 | CNC(=O)c1ccccc1NC(=O)C1=Cc2c(Br)cccc2OC1 |  | 89.2% | 46.1% | 47.9% |  |  |  | 48.1% |  |  | 
12 | CC(=O)Nc1ccc(NC(=O)c2c[nH]c3c(Cl)cccc3c2=O)cc1 |  | 91.9% | 62% | 62.7% | Active | Active | 34.7 µM (≈ 12.3 µg/mL) | 61.5% |  | 96 mm | 
13 | O=C(Nc1cc(Cl)ccc1O)C1=Cc2ccccc2OC1 |  | 92.2% | 57.2% | 52.5% |  |  |  | 67.6% |  |  | 
14 | COc1cccc2c1OCC(C(=O)Nc1cc(Cl)ccc1O)=C2 |  | 92.6% | 58.6% | 71.3% |  |  |  | 61.5% |  |  | 
15 | CCOc1ccc(NC(=O)c2cnc3ccccc3c2O)cc1 |  | 93.2% | 28.8% | 52.7% |  |  |  | 36.4% |  |  | 
16 | COc1cccc2c(=O)c(C(=O)Nc3cc(O)ccc3C)c[nH]c12 |  | 85.8% | 46.4% | 56.1% |  |  |  | 34.5% |  |  | 
17 | COc1ccccc1NC(=O)C1=Cc2ccccc2OC1 |  | 74.1% | 36.9% | 76.9% |  |  |  | 41.2% |  |  | 
18 | COc1ccc(NC(=O)c2c[nH]c3ccccc3c2=O)cc1 |  | 81.1% | 69.8% | 53.1% |  |  |  | 71% |  |  | 
19 | COc1cccc2c1C=C(C(=O)Nc1ccc(NC(C)=O)cc1)CO2 |  | 85.5% | 76.9% | 56.9% |  |  |  | 59.2% |  |  | 
20 | COC(=O)c1ccc(NC(=O)c2c[nH]c3ccccc3c2=O)cc1 |  | 73.6% | 61.3% | 49.7% |  |  |  | 61.6% |  |  | 

Row | Compound | Activity (Mus musculus [1]) | Activity (PC-12 [2]) | Activity (PC-12 [3]) | Activity (PC-12 [4]) | Activity [5, 11] | Activity [6] | solubility [7] | Activity (PC-12 [8]) | Ratio [9] | Activity (Mus musculus [10]) | Activity [5]
21 | COC(=O)c1ccc(NC(=O)C2=Cc3cccc(OC)c3OC2)cc1 |  | 73.3% | 57.5% | 41.2% |  |  |  | 58.7% |  |  | 
22 | COc1cccc2c1C=C(C(=O)Nc1cc(Cl)ccc1O)CO2 |  | 95% | 58.5% | 64.8% |  |  |  | 51.2% |  |  | 
23 | COc1cccc2c1OCC(C(=O)Nc1ccc(NC(C)=O)cc1)=C2 |  | 67.3% | 54% | 41.2% |  |  |  | 53.5% |  |  | 
24 | O=C(Nc1cccnc1)c1c[nH]c2ccccc2c1=O |  | 80.9% | 38.5% | 39.3% |  |  |  | 42.5% |  |  | 
25 | COc1cccc(NC(=O)C2=Cc3ccccc3OC2)c1 |  | 79.1% | 35.3% | 62.6% |  |  |  | 34.2% |  |  | 
26 | CC(=O)Nc1ccc(NC(=O)C2=Cc3ccccc3OC2)cc1 |  | 84.7% | 54.1% | 57.3% |  |  | 364 µM (≈ 112 µg/mL) | 62.1% |  | 93 mm | 
27 | CC(=O)Nc1ccc(NC(=O)C2=Cc3c(Br)cccc3OC2)cc1 |  | 92.9% | 46.9% | 41.7% |  |  |  | 46.7% |  |  | 
28 | CC(C(O)c1ccc(O)cc1)N1CCC(Cc2ccccc2)CC1 (stereo not given) [IFENPRODIL] |  | 82.3% | 46.4% | 40.3% |  |  |  | 41.4% |  |  | 
29 | COc1ccc(NC(=O)c2c[nH]c3c(Cl)cccc3c2=O)cc1 |  | 79.9% | 35.5% | 54.3% |  |  |  | 33.6% |  |  | 
30 | COc1ccccc1NC(=O)c1c[nH]c2ccccc2c1=O |  | 63% | 60.1% | 31.2% |  |  |  | 36.6% |  |  | 
31 | Cc1ccc(O)cc1NC(=O)c1c[nH]c2ccccc2c1=O | 45% | 63.6% | 52% | 50.2% |  | Active | 29.6 µM (≈ 8.71 µg/mL) | 59.5% | 154 |  | inactive
32 | COc1cccc(OC)c1NC(=O)C1=Cc2c(Br)cccc2OC1 |  | 92.9% | 46.4% | 52.8% |  |  |  | 45.2% |  |  | 
33 | COc1ccccc1CNC(=O)c1c[nH]c2ccccc2c1=O |  | 28.8% | 44.4% | 17.7% |  |  |  | 50.3% |  |  | 
34 | COc1cccc(NC(=O)c2c[nH]c3ccccc3c2=O)c1 |  | 100.8% | 59.5% | 44.5% |  |  | 454 µM (≈ 133 µg/mL) | 65.5% |  |  | 
35 | COc1ccccc1NC(=O)C1=Cc2c(OC)cccc2OC1 |  | 81.8% | 56.1% | 50.9% |  |  |  | 58.2% |  |  | 
36 | COc1cccc2c1OCC(C(=O)Nc1ccc(Br)cn1)=C2 |  | 75.3% | 58.2% | 43.7% |  |  |  | 65.3% |  |  | 
37 | CC(=O)c1ccc(NC(=O)c2c[nH]c3ccccc3c2=O)cc1 |  | 74.6% | 30.8% | 40.2% |  |  |  | 30.8% |  |  | 
38 | O=C(NCc1ccc(Br)cc1)c1cc2c(Br)cccc2oc1=O |  | 94.97% | 40.76% | 39.9% |  |  |  | 40.87% |  |  | 
39 | COc1ccc(NC(=O)C2=Cc3ccccc3OC2)cc1 |  | 100.3% | 35% | 61.5% |  |  |  | 43.3% |  |  | 
40 | O=C(NCc1cccc(Cl)c1)c1cc2c(Br)cccc2oc1=O |  | 97% | 45.2% | 43.1% |  |  |  | 45.4% |  |  | 
